Assay: gradient 5% acetonitrile 3 min, to 50% in 2 min, to 85% in 15 min, held 3 min, 100 µL/min
Settings: column: Zorbax Extend-C18 2.1 x 50 mm; eluents: water / acetonitrile, 0.1% formic acid
In short: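 Each retention time is based on an adduct peak selected computationally and verified by manual inspection. Measurements used HPLC–quadrupole time-of-flight mass spectrometry in positive and negative ionization mode on mixtures of ~100 pure standards. Chromatography ran on a Zorbax Extend-C18 column (2.1 × 50 mm, 1.8 μm) at 100 μL/min with water and acetonitrile, each containing 0.1% formic acid, and dead and dwell volumes of 40 μL and 900 μL.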

| SMILES | RP-LC retention time [s] |
| --- | --- |
| CCCCN1C(SCC(=O)NCc2cccs2)=NS(=O)(=O)c2ccccc21 | 782 |
| CSc1cccc(NC(=O)Nc2cccc(-c3ccc(N4CCCC4)nn3)c2)c1 | 712 |
| CC(C)NC(=O)N1CCC(c2noc(-c3cnccn3)n2)C1 (stereo not given) | 624 |
| CCc1nn2c(CNC(=O)c3ccc(Cl)cc3)c(-c3ccccc3)nc2s1 | 974 |
| Cc1[nH]c(C(=O)N2CCC(CC(=O)NCCCOC(C)C)CC2)c(C)c1C | 715 |
| CCn1nccc1-c1cccc(-c2noc(-c3ccsc3)n2)c1 | 1130 |
| Cc1ccc(-c2nc3cnccn3c2NCCC(=O)NCc2ccco2)cc1 | 684 |
| CCCN(Cc1ccc(OC)c(OC)c1)Cc1cc(=O)n2ccc(C)cc2n1 | 613 |
| O=C(NCc1ccc(F)cc1)c1ccnc(N2CCNC(c3ccccc3)C2)c1 (stereo not given) | 635 |
| Cc1ccc(NC(=O)c2c(C)oc3nc(C)nc(N4CCOCC4)c23)c(C)c1 | 849 |
| CSc1ccccc1NC(=O)Cn1cnc(-c2cccs2)cc1=O | 749 |
| Cc1ccc(C(=O)N(C)C2CCc3nnc(C)n3CC2)s1 (stereo not given) | 613 |
| COc1ccc(CC(=O)NCCc2cn(C)c3ncccc23)cc1Cl | 679 |
| Cc1ccc(C)c(N2CCN(c3ccnc(SCC(=O)Nc4cc(F)ccc4F)n3)CC2)c1 | 1120 |
| O=c1ccc(-c2ccc3c(c2)OCO3)nn1CCc1nc(-c2ccc3c(c2)OCO3)no1 | 893 |
| CSc1ncc(Cl)c(C(=O)NCc2ccco2)n1 | 753 |
| Cc1ccc(-c2cn3c(CC(=O)Nc4ccc(C)c(F)c4)csc3n2)cc1C | 933 |
| CCC(CC)C(=O)N1CCN(Cc2nc3cc(C(=O)N4CCCC4)ccc3n2C)CC1 | 598 |
| CCOC(=O)c1c(C)[nH]c(CCC(=O)NCCc2cccs2)c1C | 822 |
| CSc1ccc(NC(=O)N2CCc3c(c(-c4nc(C5CC5)no4)nn3C)C2)cc1 | 874 |
| COc1cc(OC)c(NC(=O)Cc2nnc(-c3cnccn3)o2)cc1Cl | 647 |
| CC(C)CCN1CCc2[nH]nc(C(=O)N(C)C)c2C1 | 575 |
| COCCC(=O)N1CCN(c2ncccc2-c2nnc(C(C)C)o2)CC1 | 666 |

| SMILES | RP-LC retention time [s] |
| --- | --- |
| COc1cc(-c2nc3ccc(C)cn3c2Nc2ccc3c(c2)OCCO3)ccc1O | 636 |
| Cc1ccc(-c2noc(Cn3c(=O)n(-c4ccc(F)cc4)c(=O)c4sccc43)n2)cc1C | 1080 |
| CN1C(=O)CCC2(CNC(=O)c3n[nH]c(=O)c4ccccc34)CCC=C12 (stereo not given) | 669 |
| CC(=O)Nc1ccc(-n2cnc(C(=O)NCc3ccc(F)cc3)c2)nc1 | 681 |
| CC1CO/C(=C2\C(=O)OCC2C)C1 (stereo not given) | 812 |
| COc1ccc(CNC(=O)NCCC(O)C(C)(C)C)cc1 (stereo not given) | 678 |
| Cc1ccc(S(=O)(=O)N2CCCC(c3nnc(CC(C)(C)C)o3)C2)cc1C (stereo not given) | 1030 |
| CCOC(=O)C1CCN(C(=O)C2CCCN(c3nc4cccnc4n(CC)c3=O)C2)CC1 (stereo not given) | 969 |
| CC1(c2cccc3ccccc23)OC(=O)c2ccccc21 (stereo not given) | 1030 |
| CC(=O)Nc1cc(C(=O)NCc2ccccc2C)c2ccc(C)nc2c1 | 610 |
| Cc1cccc2c(=O)n(C3CCN(S(=O)(=O)c4ccccc4F)CC3)cnc12 | 940 |
| Fc1ccc(-c2nc3cnccn3c2Nc2ccc(Cl)cc2)cc1 | 936 |
| COc1ccc(-c2nc(Cn3ccn4nc(-c5ccc6c(c5)OCO6)cc4c3=O)c(C)o2)cc1 | 1100 |
| CN(C)S(=O)(=O)c1ccc(-c2nnc(C(=O)NCc3cccc(C(F)(F)F)c3)o2)cc1 | 958 |
| CCOc1ccc(NC(=O)c2c(NC(=O)c3ccncc3)sc3c2CCC3)cc1 | 1270 |
| COc1ccc(F)cc1S(=O)(=O)N1CCC2(CC1)c1nccn1CCN2C | 564 |
| O=C(NCC1CCCO1)c1nc(-c2ccc(N3CCCC3)cc2)no1 (stereo not given) | 982 |
| Fc1ccc(C(c2nnc(-c3ccccc3Cl)o2)N2CCN(c3ccccn3)CC2)cc1 (stereo not given) | 774 |
| Cc1sc2ncnc(N3CCCC(C)C3)c2c1C(=O)Nc1cc(F)c(F)cc1F (stereo not given) | 858 |
| Cc1ccc(C)c(NC(=O)NCC2CCOCC2)c1 | 705 |
| O=C(Cc1nnc(-c2cnccn2)o1)Nc1ccc(Cl)cc1Cl | 753 |
| CCc1ccccc1NS(=O)(=O)c1cc(-c2nc(C)cs2)sc1C | 1100 |
| O=C(NC1CCN(Cc2ccccc2)CC1)c1ccc2c(=O)n3c(nc2c1)CCCC3 | 579 |

| SMILES | RP-LC retention time [s] |
| --- | --- |
| Cc1ccc(N2CC(NC(=O)Nc3ncccc3C)CC2=O)cc1 (stereo not given) | 573 |
| Cc1ccc2c(c1)N(S(C)(=O)=O)CCC(C(=O)Nc1ccccc1C(C)C)O2 (stereo not given) | 1020 |
| CCn1c(=O)oc2cc(-c3noc(-c4cc(SC)ccc4Cl)n3)ccc21 | 1270 |
| Cc1cccc(N(C(=O)c2cnc3n(c2=O)CCS3)C2CCCCC2)c1 | 782 |
| CC1=C(c2ccc(F)cc2)S(=O)(=O)N=C1N1CCCN(C(=O)c2ccc(F)cc2)CC1 | 835 |
| NC(=O)c1c(NC(=O)c2ccc(Br)s2)sc2c1CCCCC2 | 1040 |
| O=C(NCc1ccccn1)C1CN(C(=O)c2c[nH]c3ccccc23)C1 | 541 |
| CN(C)c1ncccc1C(=O)NC1CCCCC1 | 588 |
| O=C(NC1CCCCC1)C1CCN(S(=O)(=O)c2ccc3[nH]c(=O)sc3c2)CC1 | 765 |
| O=C(NCCCN1CCCC1=O)c1ccc2ncnc(N3CCCCC3)c2c1 | 584 |
| CC(=O)Nc1ccc2c(c1)CN(C(=O)c1ccccc1Cl)C(C(=O)N1CCCC1)C2 (stereo not given) | 657 |
| COc1ccc(C2Cn3cnc(C(=O)N4CCC(C(=O)NC5CCCCC5)CC4)c3CO2)cc1 (stereo not given) | 697 |
| CN1CCCn2nc(C3CCN(C(=O)NCCc4ccccc4)CC3)cc2C1=O | 657 |
| Cc1ccc(F)cc1NS(=O)(=O)c1cc2n(c1)CCCN(C)C2=O | 716 |
| Cc1cccn2c(=O)c3cc(C(=O)NCCc4ccc(S(N)(=O)=O)cc4)n(C)c3nc12 | 757 |
| CCN(CC)CCCNC(=O)c1noc2c1CCCC2 | 607 |
| O=C(Cn1c(Cc2ccccc2)nc2ccccc21)N1CCCCCC1 | 670 |
| Cc1ccc2cccc(OC(=O)N3CCCCCC3)c2n1 | 789 |
| COc1ccc(N2CCN(C(=O)c3[nH]c(C)c(S(=O)(=O)N4CCCC4)c3C)CC2)cc1 | 748 |
| CCN1CCN(CCNC(=O)c2cc3n(n2)CCCN(Cc2ccc(Cl)cc2)C3=O)CC1 | 610 |
| CCc1ccc(C2=C(C)C(N3CCCN(C(=O)NCCCOC)CC3)=NS2(=O)=O)cc1 | 761 |
| COc1ccc(Br)cc1S(=O)(=O)NCCCn1ccnc1 | 568 |
| Cc1ccccc1C(=O)NCCc1nc2cccnc2n1CC(C)C | 717 |

| SMILES | RP-LC retention time [s] |
| --- | --- |
| Cc1cc(C)cc(-c2nnc(Cc3nc(-c4cccc(C(F)(F)F)c4)no3)o2)c1 | 1250 |
| Cc1ccc2[nH]cc(CCNC(=O)Nc3ccc(Cl)cc3)c2c1 | 962 |
| CCc1ccc(NC(=O)Cn2nc3cc(C)nc(N4CCCC4)n3c2=O)cc1 | 968 |
| Cc1nc([C@@H]2CN(C(=O)c3cccn3C)C[C@H]2C(N)=O)n[nH]1 | 576 |
| CN1CCC(N2CCN(S(=O)(=O)c3ccccc3C(F)(F)F)CC2)C1=O (stereo not given) | 594 |
| CCN1CCN(CCNC(=O)C2CCN(c3nc4cccnc4s3)CC2)CC1 | 559 |
| O=C(NCCn1c(-c2ccccc2)nc2cccnc21)NCc1ccc(F)cc1 | 684 |
| COc1ccc(S(=O)(=O)Cc2nc(-c3ccc(Br)cc3)no2)cc1 | 1040 |
| COc1ccc(-c2nnc(-c3ccccc3)o2)cc1S(=O)(=O)NC(C)C | 870 |
| O=S(=O)(NCC(c1cccnc1)c1c[nH]c2ccccc12)c1ccc2c(c1)CCCC2 (stereo not given) | 790 |
| CCCc1ccc(S(=O)(=O)N2CCC3(CC2)C(=O)N(CC)c2ccccc23)cc1 | 1160 |
| O=C(CCn1cnc2cc(-c3noc(-c4ccccc4Br)n3)ccc21)N1CCOCC1 | 743 |
| Cc1cc(C)c(OCC(=O)N(Cc2ccc(C)o2)C2CCS(=O)(=O)C2)c(C)c1 (stereo not given) | 1030 |
| CS(=O)(=O)N(C1CCOCC1)C1CN(C(=O)c2cc3ccccc3[nH]2)C1 | 685 |
| Cn1cc(-c2ccncc2)cc1C(=O)NCc1ccc(F)cc1F | 648 |
| COc1ccc(N2CCCn3c2nc2c3c(=O)n(CC(=O)O)c(=O)n2C)cc1 | 660 |
| Cc1ccc(C)c(NC(=O)C2CCCN(S(=O)(=O)c3cn(C(C)C)cn3)C2)c1 (stereo not given) | 781 |
| CCOC(=O)c1c(C)oc2ncnc(NCC3CCN(Cc4ccc(F)cc4)CC3)c12 | 698 |
| COc1ccc(CNC(=O)C2CCN(C(=O)C3Sc4ccccc4NC3=O)CC2)cc1 (stereo not given) | 731 |
| O=C(Cn1nc2c(Oc3ccccc3)nccn2c1=O)Nc1ccc(Br)cc1F | 898 |
| O=C(c1cc2c(s1)CCCC2)N1CCc2[nH]cnc2C12CCCCC2 | 692 |
